Patent publication US20230085307A1, “PYRIDAZINONE COMPOUND AND HERBICIDE” (NISSAN CHEMICAL CORPORATION, priority 2019, published 2023)

Key:
persian speedwell [1] = experiment: Test Example 5: herbicidal effect by foliage application, plastic box (Table 20, symbol R); format: in vivo, Persian speedwell (Veronica persica); settings: foliage application
Procedure, shortened: (§1)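 Plants sown in sterilized diluvial soil and grown 14 days in a greenhouse at 25° C to 30° C, then sprayed on the foliage with the compound's emulsion diluted in water to a predetermined herbicide amount. Injury to weeds and crops scored three weeks after application on a visual rating scale.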

chickweed [2] = experiment: Test Example 4: herbicidal effect by soil treatment (Table 19, symbol P); format: in vivo, common chickweed (Stellaria media)
Procedure, shortened: (§2)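 Seeds were sown in sterilized diluvial soil and covered with about 1.5 cm of soil. An emulsion formulation diluted with water to a predetermined herbicide amount was sprayed evenly onto the soil surface. Plants grew in a greenhouse at 25° C. to 30° C., and the effect was scored three weeks after application using criteria from an earlier test.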

southern crabgrass [3] = experiment: Test Example 5: herbicidal effect by foliage application, plastic box (Table 20, symbol F); format: in vivo, southern crabgrass (Digitaria ciliaris); settings: foliage application
Procedure, shortened: as §1

barnyard grass [4] = experiment: Test Example 3: herbicidal effect by foliage application, Wagner pot (Table 18, symbol H); format: in vivo, barnyard grass (Echinochloa crus-galli)
Procedure, shortened: (§3)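 Plants were sown in alluvial soil held under 0.1–0.5 cm standing water and grown 14 days in a greenhouse at 25–30 °C. An emulsifiable formulation, water-diluted to the set dose, was then sprayed onto the foliage, and effects were scored three weeks later using previously defined criteria.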

lambsquarters [5] = experiment: Test Example 5: herbicidal effect by foliage application, plastic box (Table 20, symbol O); format: in vivo, lambsquarters (Chenopodium album); settings: foliage application
Procedure, shortened: as §1

rice flat sedge = experiment: Test Example 3: herbicidal effect by foliage application, Wagner pot (Table 18, symbol E); format: in vivo, rice flat sedge (Cyperus iria)
Procedure, shortened: as §3

wild oat [6] = experiment: Test Example 4: herbicidal effect by soil treatment (Table 19, symbol I); format: in vivo, wild oat (Avena fatua)
Procedure, shortened: as §2

velvetleaf [7] = experiment: Test Example 5: herbicidal effect by foliage application, plastic box (Table 20, symbol M); format: in vivo, velvetleaf (Abutilon theophrasti); settings: foliage application
Procedure, shortened: as §1

blackgrass [8] = experiment: Test Example 4: herbicidal effect by soil treatment (Table 19, symbol J); format: in vivo, blackgrass (Alopecurus myosuroides)
Procedure, shortened: as §2

windgrass [9] = experiment: Test Example 5: herbicidal effect by foliage application, plastic box (Table 20, symbol L); format: in vivo, windgrass (Apera spica-venti); settings: foliage application
Procedure, shortened: as §1

Italian ryegrass [10] = experiment: Test Example 4: herbicidal effect by soil treatment (Table 19, symbol K); format: in vivo, Italian ryegrass (Lolium multiflorum)
Procedure, shortened: as §2

green foxtail [11] = experiment: Test Example 4: herbicidal effect by soil treatment (Table 19, symbol G); format: in vivo, green foxtail (Setaria viridis)
Procedure, shortened: as §2

windgrass [12] = experiment: Test Example 4: herbicidal effect by soil treatment (Table 19, symbol L); format: in vivo, windgrass (Apera spica-venti)
Procedure, shortened: as §2

southern crabgrass [13] = experiment: Test Example 4: herbicidal effect by soil treatment (Table 19, symbol F); format: in vivo, southern crabgrass (Digitaria ciliaris)
Procedure, shortened: as §2

false cleavers = experiment: Test Example 4: herbicidal effect by soil treatment (Table 19, symbol Q); format: in vivo, false cleavers (Galium spurium)
Procedure, shortened: as §2

Chinese sprangletop = experiment: Test Example 3: herbicidal effect by foliage application, Wagner pot (Table 18, symbol D); format: in vivo, chinese sprangletop (Leptochloa chinensis)
Procedure, shortened: as §3

Italian ryegrass [14] = experiment: Test Example 5: herbicidal effect by foliage application, plastic box (Table 20, symbol K); format: in vivo, Italian ryegrass (Lolium multiflorum); settings: foliage application
Procedure, shortened: as §1

barnyard grass [15] = experiment: Test Example 5: herbicidal effect by foliage application, plastic box (Table 20, symbol H); format: in vivo, barnyard grass (Echinochloa crus-galli); settings: foliage application
Procedure, shortened: as §1

lambsquarters [16] = experiment: Test Example 4: herbicidal effect by soil treatment (Table 19, symbol O); format: in vivo, lambsquarters (Chenopodium album)
Procedure, shortened: as §2

barnyard grass [17] = experiment: Test Example 4: herbicidal effect by soil treatment (Table 19, symbol H); format: in vivo, barnyard grass (Echinochloa crus-galli)
Procedure, shortened: as §2

redroot pigweed [18] = experiment: Test Example 4: herbicidal effect by soil treatment (Table 19, symbol N); format: in vivo, redroot pigweed (Amaranthus retroflexus)
Procedure, shortened: as §2

chickweed [19] = experiment: Test Example 5: herbicidal effect by foliage application, plastic box (Table 20, symbol P); format: in vivo, common chickweed (Stellaria media); settings: foliage application
Procedure, shortened: as §1

blackgrass [20] = experiment: Test Example 5: herbicidal effect by foliage application, plastic box (Table 20, symbol J); format: in vivo, blackgrass (Alopecurus myosuroides); settings: foliage application
Procedure, shortened: as §1

redroot pigweed [21] = experiment: Test Example 5: herbicidal effect by foliage application, plastic box (Table 20, symbol N); format: in vivo, redroot pigweed (Amaranthus retroflexus); settings: foliage application
Procedure, shortened: as §1

wild oat [22] = experiment: Test Example 5: herbicidal effect by foliage application, plastic box (Table 20, symbol I); format: in vivo, wild oat (Avena fatua); settings: foliage application
Procedure, shortened: as §1

velvetleaf [23] = experiment: Test Example 4: herbicidal effect by soil treatment (Table 19, symbol M); format: in vivo, velvetleaf (Abutilon theophrasti)
Procedure, shortened: as §2

persian speedwell [24] = experiment: Test Example 4: herbicidal effect by soil treatment (Table 19, symbol R); format: in vivo, Persian speedwell (Veronica persica)
Procedure, shortened: as §2

green foxtail [25] = experiment: Test Example 5: herbicidal effect by foliage application, plastic box (Table 20, symbol G); format: in vivo, green foxtail (Setaria viridis); settings: foliage application
Procedure, shortened: as §1

[26] = AAH 320 g/ha, three weeks after application
[27] = 320 g/ha, evaluated three weeks after application
[28] = amount of applied herbicide 320 g/ha

CCCC(=O)Oc1c(OC)nn(C)c(=O)c1-c1c(-c2ccc(F)c(C)c2)sc2ccccc12 [1-175]
R: persian speedwell, herbicidal effect (persian speedwell [1]; [26]): 4 (Herbicidal rate of 70% or more and less than 90%) | P: chickweed, herbicidal effect rating (chickweed [2]; AAH 320 g/ha): 0 (Herbicidal rate of 5% or less (almost no effect)) | F: southern crabgrass, herbicidal effect (southern crabgrass [3]; [26]): 0 (Herbicidal rate of 5% or less (almost no effect)) | herbicidal effect on H (barnyard grass), rating 0-5 (barnyard grass [4]; 320 g/ha): 0 (Herbicidal rate of 5% or less (almost no effect)) | O: lambsquarters, herbicidal effect (lambsquarters [5]; [26]): 0 (Herbicidal rate of 5% or less (almost no effect)) | herbicidal effect on E (rice flat sedge), rating 0-5 (rice flat sedge; 320 g/ha): 3 (Herbicidal rate of 40% or more and less than 70%) | I: wild oat, herbicidal effect rating (wild oat [6]; AAH 320 g/ha): 0 (Herbicidal rate of 5% or less (almost no effect)) | M: velvetleaf, herbicidal effect (velvetleaf [7]; [26]): 3 (Herbicidal rate of 40% or more and less than 70%) | J: blackgrass, herbicidal effect rating (blackgrass [8]; AAH 320 g/ha): 0 (Herbicidal rate of 5% or less (almost no effect)) | L: windgrass, herbicidal effect (windgrass [9]; [26]): 0 (Herbicidal rate of 5% or less (almost no effect)) | K: Italian ryegrass, herbicidal effect rating (Italian ryegrass [10]; AAH 320 g/ha): 2 (Herbicidal rate of 20% or more and less than 40%) | G: green foxtail, herbicidal effect rating (green foxtail [11]; AAH 320 g/ha): 1 (Herbicidal rate of 5% or more and less than 20%) | L: windgrass, herbicidal effect rating (windgrass [12]; AAH 320 g/ha): 1 (Herbicidal rate of 5% or more and less than 20%) | F: southern crabgrass, herbicidal effect rating (southern crabgrass [13]; AAH 320 g/ha): 0 (Herbicidal rate of 5% or less (almost no effect)) | Q: false cleavers, herbicidal effect rating (false cleavers; AAH 320 g/ha): 0 (Herbicidal rate of 5% or less (almost no effect)) | herbicidal effect on D (Chinese sprangletop), rating 0-5 (Chinese sprangletop; 320 g/ha): 0 (Herbicidal rate of 5% or less (almost no effect)) | K: Italian ryegrass, herbicidal effect (Italian ryegrass [14]; [26]): 0 (Herbicidal rate of 5% or less (almost no effect)) | H: barnyard grass, herbicidal effect (barnyard grass [15]; [26]): 0 (Herbicidal rate of 5% or less (almost no effect)) | O: lambsquarters, herbicidal effect rating (lambsquarters [16]; AAH 320 g/ha): 4 (Herbicidal rate of 70% or more and less than 90%) | H: barnyard grass, herbicidal effect rating (barnyard grass [17]; AAH 320 g/ha): 0 (Herbicidal rate of 5% or less (almost no effect)) | N: redroot pigweed, herbicidal effect rating (redroot pigweed [18]; AAH 320 g/ha): 4 (Herbicidal rate of 70% or more and less than 90%) | P: chickweed, herbicidal effect (chickweed [19]; [26]): 5 (Herbicidal rate of 90% or more (almost completely withered)) | J: blackgrass, herbicidal effect (blackgrass [20]; [26]): 0 (Herbicidal rate of 5% or less (almost no effect)) | N: redroot pigweed, herbicidal effect (redroot pigweed [21]; [26]): 0 (Herbicidal rate of 5% or less (almost no effect)) | I: wild oat, herbicidal effect (wild oat [22]; [26]): 0 (Herbicidal rate of 5% or less (almost no effect)) | M: velvetleaf, herbicidal effect rating (velvetleaf [23]; AAH 320 g/ha): 3 (Herbicidal rate of 40% or more and less than 70%) | R: persian speedwell, herbicidal effect rating (persian speedwell [24]; AAH 320 g/ha): 0 (Herbicidal rate of 5% or less (almost no effect)) | G: green foxtail, herbicidal effect (green foxtail [25]; [26]): 0 (Herbicidal rate of 5% or less (almost no effect))

Cc1ccc2sc(-c3ccccc3)c(-c3c(O)c(C)nn(C)c3=O)c2c1 [2-132]
herbicidal effect on R: persian speedwell (persian speedwell [1]; [27]): 5 (Herbicidal rate of 90% or more (almost completely withered)) | P: chickweed, herbicidal effect rating (chickweed [2]; [28]): 4 (Herbicidal rate of 70% or more and less than 90%) | herbicidal effect on F: southern crabgrass (southern crabgrass [3]; [27]): 1 (Herbicidal rate of 5% or more and less than 20%) | herbicidal effect on H: barnyard grass (barnyard grass [4]; [28]): 0 (Herbicidal rate of 5% or less (almost no effect)) | herbicidal effect on O: lambsquarters (lambsquarters [5]; [27]): 4 (Herbicidal rate of 70% or more and less than 90%) | herbicidal effect on E: rice flat sedge (rice flat sedge; [28]): 5 (Herbicidal rate of 90% or more (almost completely withered)) | I: wild oat, herbicidal effect rating (wild oat [6]; [28]): 0 (Herbicidal rate of 5% or less (almost no effect)) | herbicidal effect on M: velvetleaf (velvetleaf [7]; [27]): 3 (Herbicidal rate of 40% or more and less than 70%) | J: blackgrass, herbicidal effect rating (blackgrass [8]; [28]): 0 (Herbicidal rate of 5% or less (almost no effect)) | herbicidal effect on L: windgrass (windgrass [9]; [27]): 0 (Herbicidal rate of 5% or less (almost no effect)) | K: Italian ryegrass, herbicidal effect rating (Italian ryegrass [10]; [28]): 2 (Herbicidal rate of 20% or more and less than 40%) | G: green foxtail, herbicidal effect rating (green foxtail [11]; [28]): 3 (Herbicidal rate of 40% or more and less than 70%) | L: windgrass, herbicidal effect rating (windgrass [12]; [28]): 0 (Herbicidal rate of 5% or less (almost no effect)) | F: southern crabgrass, herbicidal effect rating (southern crabgrass [13]; [28]): 1 (Herbicidal rate of 5% or more and less than 20%) | Q: false cleavers, herbicidal effect rating (false cleavers; [28]): 0 (Herbicidal rate of 5% or less (almost no effect)) | herbicidal effect on D: Chinese sprangletop (Chinese sprangletop; [28]): 0 (Herbicidal rate of 5% or less (almost no effect)) | herbicidal effect on K: Italian ryegrass (Italian ryegrass [14]; [27]): 5 (Herbicidal rate of 90% or more (almost completely withered)) | herbicidal effect on H: barnyard grass (barnyard grass [15]; [27]): 0 (Herbicidal rate of 5% or less (almost no effect)) | O: lambsquarters, herbicidal effect rating (lambsquarters [16]; [28]): 5 (Herbicidal rate of 90% or more (almost completely withered)) | H: barnyard grass, herbicidal effect rating (barnyard grass [17]; [28]): 3 (Herbicidal rate of 40% or more and less than 70%) | N: redroot pigweed, herbicidal effect rating (redroot pigweed [18]; [28]): 0 (Herbicidal rate of 5% or less (almost no effect)) | herbicidal effect on P: chickweed (chickweed [19]; [27]): 5 (Herbicidal rate of 90% or more (almost completely withered)) | herbicidal effect on J: blackgrass (blackgrass [20]; [27]): 2 (Herbicidal rate of 20% or more and less than 40%) | herbicidal effect on N: redroot pigweed (redroot pigweed [21]; [27]): 5 (Herbicidal rate of 90% or more (almost completely withered)) | herbicidal effect on I: wild oat (wild oat [22]; [27]): 0 (Herbicidal rate of 5% or less (almost no effect)) | M: velvetleaf, herbicidal effect rating (velvetleaf [23]; [28]): 0 (Herbicidal rate of 5% or less (almost no effect)) | R: persian speedwell, herbicidal effect rating (persian speedwell [24]; [28]): 3 (Herbicidal rate of 40% or more and less than 70%) | herbicidal effect on G: green foxtail (green foxtail [25]; [27]): 3 (Herbicidal rate of 40% or more and less than 70%)
